Measured values: a melting point compilation (Tetko et al.; mined from patent text by program, amines drawn as free bases though some values may be those of a salt)

| Compound | melting point [°C] |
| --- | --- |
| NC(=NCC(F)(F)F)Nc1cncc(Cl)n1 | 139 to 140 |
| CCCCc1nc2ncccc2n1Cc1ccc(-c2ccccc2C(=O)O)cc1 | 170 |
| O=C(Oc1ccccc1)N1CCC2(CC1)SC(c1ccc(Cl)c(Cl)c1)c1ccccc12 (stereo not given) | 200 to 202 |
| O=C(NCCOCc1cccc(Cl)c1)c1c(Cl)cccc1Cl | 70 to 72 |
| COc1nc(C)cnc1N(C(=O)OCC(C)C)S(=O)(=O)c1cccnc1-c1ccc(CBr)cc1 | 125 to 128 |
| Cc1cc(C(=O)Nc2ccn3cc(-c4ccccc4)nc3n2)cc(Cl)n1 | 148 to 151 |
| CCOP(=O)(CSCCOn1cnc2c(N)ncnc21)OCC | 93 to 95 |
| Cc1cc(CNC(=O)c2cc(-c3ccc(C(C)(C)C)cc3)nn2CCN2CCOCC2)ccc1OC(C)(C)C(=O)O | 140 |
| Cc1cn(CCCN2C(=O)c3ccc(Cl)c(Cl)c3C2=O)cn1 | 147 to 151 |
| COc1cccc(CC(=O)O)c1OCc1cc(OCc2ccc3ccccc3n2)nn1C(C)C | 163 to 164 |
| O=c1[nH]c2cc(Cl)ccc2c(=O)n1S(=O)(=O)c1cc(Cl)ccc1Cl | 254 to 256 |
| COc1ccccc1N1CCN(CCNC(=O)c2nsc3ccccc23)CC1 | 107 to 110 |
| CC(=O)OCC1OC(n2cc(C(I)=CI)c(=O)[nH]c2=O)C(OC(C)=O)C1OC(C)=O (stereo not given) | 83 to 85 |
| CCOc1ccc2c(c1)n(C1CCOCC1)c(=O)n2Cc1ccc(C(=O)NC(C)(C)C)cc1OC | 209 |
| COc1ccc(CNC(=O)c2cc([N+](=O)[O-])ccc2N[C@H]2CC[C@@H](OC(C)=O)CC2)cc1OC | 147 to 148 |
| CCOC(=O)/C=C/c1ccc(OCOC)cc1Oc1ccc(C(F)(F)F)cn1 | 69 to 70 |
| CS(=O)N1CCSc2cccc(Cl)c2C1 (stereo not given) | 82 to 84 |
| CC(C)Oc1c(F)cc2c(O)c(C(=O)NCc3ccc(Cl)cc3)cnc2c1F | 207 to 209 |
| CC(C)(CCc1ccccc1)NCC(O)CO (stereo not given) | 74 to 77 |
| O=C(O)CN(C(=O)c1cccc(C(F)(F)F)c1S)C1CCCC1 | 144 to 146 |
| COCOc1ccccc1-c1cc(-c2ccc(OC)c(C(=O)O)c2)c(C#N)c(NC(=O)c2cccs2)n1 | 187 to 189 |
| CCOC(=O)c1ccc(OCC2CN(c3cccnn3)CCO2)cc1 (stereo not given) | 110 |
| CCCCNC(=O)C(=O)Nc1ccc(OC)cc1N | 180 to 181 |
| CCOC(=O)c1cc(NCc2ccccc2)c(Nc2cccc(C)c2)c(S(N)(=O)=O)c1 | 169 to 170 |
| COC(=O)c1ccc(C(=O)N2CCC(NC3CCOCC3)CC2)cc1 | 129 |

| Compound | melting point [°C] |
| --- | --- |
| CC(C)(C)Nc1c(NCc2ccc(C(F)(F)F)cc2)c(=O)c1=O | 306 to 308 |
| CCC1CC2C3CC=C4CC(OC(C)=O)CCC4(C)C3CCC2(C)C1C(C)=O (stereo not given) | 115 |
| O=C1CCCCC1c1cccnc1 (stereo not given) | 78 to 80 |
| COC(=O)c1cc(-c2ccccc2)sc1Nc1ccc(F)cc1[N+](=O)[O-] | 150 |
| CSc1ccc(-c2ccc(C(F)(F)F)cc2)nc1F | 70 to 73 |
| CCCCOC(=O)c1ccc2cc(O)ccc2c1 | 107 to 112 |
| COc1ccc(-c2c(NC(C)C(C)(C)C)c(=O)c2=O)cc1 (stereo not given) | 179 to 181 |
| Cc1ccc(C(=O)Nc2ccccc2)cc1[N+](=O)[O-] | 147 to 148 |
| COc1cccc(CN2CCCCC2C(=O)O)c1 (stereo not given) | 186 to 187 |
| COc1cc(C=CC(=O)Nc2cnc3c(C)c(Cl)ccc3c2-c2ccccc2C)cc(OC)c1OC(C)=O | 213 to 214 |
| CCCC(=O)C=CC(=O)O | 100 to 102 |
| COc1cc2ncc(NC3CCCCC3)nc2cc1N1CCOCC1 | 194 to 196 |
| Cc1oc(-c2cc(C(F)(F)F)cc(C(F)(F)F)c2)nc1COc1cccc(CN(O)C(N)=O)c1 | 150 to 151 |
| CCc1nsc(C(=O)NC(C)C)c1C(=O)O | 138 to 140 |
| CNC(=O)c1nc(Cl)c(Cl)[nH]1 | 240 |
| Clc1cccnc1N1CCN(c2nc3ccc(Br)cc3[nH]2)CC1 | 207 to 208 |
| CN(C)C(=O)c1cccc(CN2C(=O)C3(COc4cc5c(cc43)OCCO5)c3ccccc32)c1 (stereo not given) | 90 to 96 |
| CC(C)N1CCC(CN2CCN(CCCN3CCCCC3)C2=C(C#N)C#N)CC1 | 115 to 117 |
| N#Cc1cc(Oc2ccc(Cl)cc2Cl)c(O)cc1Cl | 145 to 150 |
| O=C(O)c1oc(=O)c2ccc(Cl)cc2c1-c1ccccc1 | 206 to 208 |
| COC(=O)c1ccc(Cc2cn(C)c3ccc([N+](=O)[O-])cc23)c(OC)c1 | 144 to 146 |
| CN(C)c1ccc(NC(=O)N(CC2CCCCC2)C[C@H]2CCC[C@H](CN(CC3CCCCC3)C(=O)Nc3ccc(N(C)C)cc3)C2)cc1 (relative stereo) | 136 to 140 |
| O=C1CCCc2nc3ccccc3c(NCCCC(c3ccccc3)c3ccccc3)c21 | 86 to 88 |
| COc1ccc2c(c1)C=C(C(=O)NCCCCN1CCN(c3ccccc3OC)CC1)CO2 | 165 |
| C[C@H]1[C@@H](C(C)(C)O)CCN1c1ccc(C#N)cc1C(F)(F)F | 98 to 100 |

| Compound | melting point [°C] |
| --- | --- |
| C#CCOc1ccccc1-n1cnc2cc(N)ccc21 | 40 to 42 |
| CCc1nnc(-c2cccc([N+](=O)[O-])c2)n1-c1ccc(OC)cc1 | 126 |
| COc1ccc(C(=O)NCc2ccc(NC3=NCCN3)cc2)cc1 | 160 to 161 |
| COc1ccnc(CCc2nc3cc(-c4ccc(S(N)(=O)=O)cc4)cnc3[nH]2)c1 | 216 to 218 |
| COc1c2c(c(OC)c(OC)c1OC)CCC(CCOc1ccc(-c3ccccc3)cc1)CC2 | 115 to 120 |
| CC(CS)C(=O)N(CC(=O)O)C1CC1 (stereo not given) | 89 to 91 |
| CN1CCC(c2c[nH]c3ccc(/C=C/S(N)(=O)=O)cc23)CC1 | 208 to 209 |
| O=C(c1ccc(Cl)cc1)c1cc(-c2cccnc2)c(N2CCOCC2)s1 | 196 |
| Cc1oc(-c2ccc(Cl)cc2)nc1COc1cccc(CN(O)C(N)=O)c1 | 125 to 127 |
| O=C(NCc1ccc(Cl)cc1)c1cnc2ccc(O)cc2c1O | 319 to 320 |
| Cn1ncc(C(=O)c2ccc(S(C)(=O)=O)cc2Cl)c1O | 272 to 275 |
| CC(C)Cc1cc(OCc2ccccc2)c2c(c1)OC(C)(C)CC2C(=O)Oc1ccc([N+](=O)[O-])cc1 (stereo not given) | 125 to 126 |
| O=C(CN1C(=O)C2(COc3ccc(Br)cc32)c2ccccc21)Nc1ccccc1F (stereo not given) | 100 to 103 |
| CC12CC3CC(C1)CC(CNC(=O)n1cc(F)c(=O)[nH]c1=O)(C3)C2 | 172 |
| Cc1cc2c(c(C3=NNC(=O)CC3C)c1)OCCN2 (stereo not given) | 160 to 162 |
| CC(c1ccccc1)(c1ccc(OC(=O)CCl)cc1)c1ccc(OC(=O)CCl)cc1 | 97 to 98 |
| COc1cc([N+](=O)[O-])ccc1S(=O)(=O)n1c(=O)n(C2CCCCC2)c2cc(Cl)ccc21 | 185 |
| Cc1cccc(-c2[nH]c(C(C)C)nc2-c2cccc(-c3ccoc3)c2)n1 | 74 to 78 |
| Cc1sc2ccccc2c1Br | 39 to 40 |
| O=C1NC(=O)C(Nc2ccc3ccccc3c2)S1 (stereo not given) | 200 to 201 |
| O=C1Nc2ccccc2N(C(=O)CN2CCOCC2)c2ncncc21 | 240 to 242 |
| O=C(OCCCSc1cccc2nccn12)c1ccccc1 | 60 to 61 |
| Cc1oc(-c2ccccc2)nc1COc1ccc2cc(C/C=C/O)oc2c1 | 143 to 144 |
| O=C(CON1C(=O)c2ccccc2C1=O)OC(c1ccccc1)c1ccccc1 | 173 to 175 |
| CC1NN(Cc2ccc(Cl)cc2)C(=O)NC1=O (stereo not given) | 155 |

| Compound | melting point [°C] |
| --- | --- |
| CC(C)(C)OC(=O)NC(Cc1cc2ccccc2s1)C(=O)O (stereo not given) | 128 to 129 |
| BrCc1ccc2nc(-c3ccccc3)oc2c1 | 162 |
| COCC=C(NC(C)=O)C(=O)OC | 61 to 63 |
| O=C1NCC[C@@H](c2ccc(Oc3ccccc3)cc2)[C@@H]1c1ccccc1 (relative stereo) | 157 to 159 |
| COC1=CC(O)=CC(OC)C1(OC)c1cc2cccnc2[nH]1 (stereo not given) | 174 to 176 |
| CCCC1c2c(ccc(C(C)=O)c2O)OC1CSc1ccc(C(=O)CCC(=O)O)cc1 (stereo not given) | 110 to 112 |
| Fc1ccc(-c2onc3c(CBr)cccc23)cc1 | 145 to 148 |
| CN1C(=O)C2(CCN(CCCC(O)c3ccc(F)cc3)CC2)c2ccccc21 (stereo not given) | 126 to 128 |
| O=C1c2ccc(Cl)cc2C(=O)N1c1ccc([N+](=O)[O-])cc1Cl | 209 to 212 |
| CC(C)(C)Cc1nc2cc(CC(=O)O)ccc2o1 | 108 to 109 |
| CCCCC(=O)NC(C(=O)OCc1ccccc1)C(C)C (stereo not given) | 118 to 127 |
| Cc1nc2c3c(c(C(=O)N(C)C)cc2n1C)CC[C@@H](c1ccccc1)O3 | 227 to 228 |
| CC1(C)OC(C=Cc2cccnc2)=CC1=O | 68 to 70 |
| CC(C)(Cl)Cn1ncc(OCc2ccc(I)nc2)c(Cl)c1=O | 119 to 123 |
| CCCCCCSC(=S)N1Cc2[nH]c3ccccc3c2CC1CO (stereo not given) | 102 to 106 |
| CCOC(=O)C1=C(C)NC(C#N)=C(C(=O)OCC)C1c1ccccc1C(F)(F)F (stereo not given) | 140 to 143 |
| CN(c1ccc(Cl)cc1)c1ncccc1[N+](=O)[O-] | 107 to 110 |
| CC1(C)NC(=O)OC12CCNCC2 | 38 to 40 |
| CS(=O)(=O)c1ccc(-c2cc(-c3csc(N)n3)sc2-c2ccc(F)cc2)cc1 | 243 to 245 |
| OCCOc1ccc(Nc2cc(Nc3ccccc3F)ncn2)cc1 | 163 to 166 |
| CSc1ccc(-c2sc(NC(C)=O)nc2/C=C/c2ccc([N+](=O)[O-])cc2)cc1 | 228 to 230 |
| Cc1ccc(C)c(-c2sc(NC(=O)[C@@H]3CC4CCC3CC4)c(C#N)c2Cl)c1 | 208 to 210 |
| Cc1cnc(CNC(=O)c2sc(N3C[C@@H](C)N(Cc4cc(F)cc(F)c4)C3=O)nc2C)cn1 | 131 to 132 |
| CCOC(=O)C=Cc1cc(-n2nc3ccc(Cl)cn3c2=O)c(F)cc1Cl | 162 to 165 |
| CC12CC(N3CCC(=O)CC3)C(O)CC1CCC1C2CCC2(C)C(O)C(N3CCCCC3)CC12 (stereo not given) | 205 to 206 |
